According to patent US20250002475A1 (EPICS THERAPEUTICS, priority 2023, published 2025):

Columns and labels:
Kasumi-1 cells = assay: Kasumi-1 cellular viability assay (ATP-Lite, 72 h); format: cell-based; settings: Homo sapiens, ATP-Lite luminescence, % viability relative to DMSO
How it was run: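 Kasumi-1 AML cells, 15000/well in RPMI-1640 with 10% FBS, were exposed to compound titrations (0.1% final DMSO) for 72 h at 37 °C, 5% CO2. ATP-Lite One Step luminescence gave % viability versus DMSO control, and IC50 came from the concentration-response.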

Caov-3 cells = assay: Caov-3 cellular viability assay (ATP-Lite, 72 h); format: cell-based; settings: Homo sapiens, ATP-Lite luminescence, % viability relative to DMSO
How it was run: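 10000 cells/well treated 72 h at 37 °C, 5% CO2, in RPMI-1640 with 10% FBS and 0.1% DMSO final. Viability by ATP-Lite One Step luminescence. Expressed as % of DMSO control, with IC50 from each compound's concentration-response curve.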

[1] = target: T1, recombinant METTL3/METTL14 complex (Homo sapiens, UniProt Q86U44); assay: METTL3/14 Scintillation Proximity Assay (SPA), RNA methyltransferase activity; format: biochemical; settings: 5.31 nM METTL3/14 complex, 250 nM RNA substrate, 1 μM 3H-SAM, 90 min; for compounds marked * best of the two separated forms
T1 construct: purchased Active Motif 311970; host or cells: Sf9 cells
T1 sequence (Q86U44 whole entry): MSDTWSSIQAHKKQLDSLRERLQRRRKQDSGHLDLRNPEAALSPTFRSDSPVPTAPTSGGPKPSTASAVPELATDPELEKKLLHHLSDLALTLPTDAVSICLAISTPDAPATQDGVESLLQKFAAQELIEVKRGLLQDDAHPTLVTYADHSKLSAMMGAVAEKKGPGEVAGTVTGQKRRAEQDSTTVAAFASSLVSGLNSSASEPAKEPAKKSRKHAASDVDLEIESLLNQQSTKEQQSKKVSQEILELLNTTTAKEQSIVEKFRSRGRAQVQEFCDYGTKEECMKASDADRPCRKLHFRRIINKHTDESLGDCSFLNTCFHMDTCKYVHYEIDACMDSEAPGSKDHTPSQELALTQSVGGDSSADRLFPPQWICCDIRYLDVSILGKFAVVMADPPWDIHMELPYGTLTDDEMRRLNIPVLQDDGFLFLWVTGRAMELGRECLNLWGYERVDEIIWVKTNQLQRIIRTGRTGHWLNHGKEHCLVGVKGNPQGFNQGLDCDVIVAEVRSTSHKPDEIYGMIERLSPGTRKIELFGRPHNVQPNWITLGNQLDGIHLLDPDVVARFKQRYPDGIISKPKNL
T1 sequence (Q9HCE5 whole entry partner): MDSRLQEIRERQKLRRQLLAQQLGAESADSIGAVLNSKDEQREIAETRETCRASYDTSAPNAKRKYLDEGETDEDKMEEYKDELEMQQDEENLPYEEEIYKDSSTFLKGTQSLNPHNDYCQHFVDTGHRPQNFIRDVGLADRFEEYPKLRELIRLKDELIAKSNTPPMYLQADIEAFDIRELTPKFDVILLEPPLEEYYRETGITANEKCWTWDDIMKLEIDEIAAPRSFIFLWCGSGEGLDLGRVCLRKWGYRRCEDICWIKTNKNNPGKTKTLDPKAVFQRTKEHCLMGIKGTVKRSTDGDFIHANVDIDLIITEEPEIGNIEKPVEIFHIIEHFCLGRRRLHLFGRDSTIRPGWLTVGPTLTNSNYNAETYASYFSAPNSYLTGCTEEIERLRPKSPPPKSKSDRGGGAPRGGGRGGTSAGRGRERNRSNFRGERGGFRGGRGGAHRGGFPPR

Structure (SMILES)	IC50 [1]	IC50 (Kasumi-1 cells)	IC50 (Caov-3 cells)
COc1cc(-c2cn(Cc3cnc(N4CCCC(NCC5CCC5)C4)cn3)nn2)c2cn[nH]c2c1 (stereo not drawn) [Compound 047, N-(cyclobutylmethyl)-1-(5-((4-(6-methoxy-1H-indazol-4-yl)-1H-1,2,3-triazol-1-yl)methyl)pyrazin-2-yl)piperidin-3-amine]	≤ 50 nM	500 to 5000 nM	> 5000 nM
COc1cncc(-c2cn(Cc3ccc(N4C[C@@H](F)C[C@@H](NCC5CCC5)C4)nn3)nn2)c1 [Compound 056, (3R,5S)-N-(cyclobutylmethyl)-5-fluoro-1-(6-((4-(5-methoxypyridin-3-yl)-1H-1,2,3-triazol-1-yl)methyl)pyridazin-3-yl)piperidin-3-amine]	≤ 50 nM	> 5000 nM	> 5000 nM
Clc1cc(-c2cn(Cc3ccc(N4CCC[C@@H](NCC5CCC5)C4)nn3)nn2)c2cn[nH]c2c1 [Compound 057, (R)-1-(6-((4-(6-chloro-1H-indazol-4-yl)-1H-1,2,3-triazol-1-yl)methyl)pyridazin-3-yl)-N-(cyclobutylmethyl)piperidin-3-amine]	≤ 50 nM	500 to 5000 nM	500 to 5000 nM
O=C(NCc1ccc(N2CCC[C@@H](NCC3CCC3)C2)cn1)c1cc(=O)n2ccccc2n1 [Compound 060, (R)-N-((5-(3-((cyclobutylmethyl)amino)piperidin-1-yl)pyridin-2-yl)methyl)-4-oxo-4H-pyrido[1,2-a]pyrimidine-2-carboxamide]	≤ 50 nM	> 5000 nM	> 5000 nM
COc1cncc(-c2cn(Cn3ccc(N4CCC[C@@H](NCC5CCC5)C4)cc3=O)nn2)c1 [Compound 063, (R)-4-(3-((cyclobutylmethyl)amino)piperidin-1-yl)-1-((4-(5-methoxypyridin-3-yl)-1H-1,2,3-triazol-1-yl)methyl)pyridin-2(1H)-one]	≤ 50 nM	500 to 5000 nM	500 to 5000 nM
COc1cncc(-c2cn(C(C)n3ncc(N4CCC[C@@H](NCC5CCC5)C4)cc3=O)nn2)c1 (stereo partly drawn) [Compound 067, 5-((R)-3-((cyclobutylmethyl)amino)piperidin-1-yl)-2-(1-(4-(5-methoxypyridin-3-yl)-1H-1,2,3-triazol-1-yl)ethyl)pyridazin-3(2H)-one]	≤ 50 nM	500 to 5000 nM	500 to 5000 nM
COc1cncc(-c2cn(Cc3ccc(N4CCC[C@@H](NCC5CCC5)C4)cc3)nn2)c1 [Compound 068, (R)-N-(cyclobutylmethyl)-1-(4-((4-(5-methoxypyridin-3-yl)-1H-1,2,3-triazol-1-yl)methyl)phenyl) piperidin-3-amine]	≤ 50 nM	500 to 5000 nM	500 to 5000 nM
COc1cncc(-n2cc(Cn3ccc(N4CCC[C@@H](NCC5CCC5)C4)cc3=O)nn2)c1 [Compound 075, (R)-4-(3-((cyclobutylmethyl)amino)piperidin-1-yl)-1-((1-(5-methoxypyridin-3-yl)-1H-1,2,3-triazol-4-yl)methyl)pyridin-2(1H)-one]	≤ 50 nM	> 5000 nM	500 to 5000 nM
COc1cncc(-c2nnc(Cn3ccc(N4CCC[C@@H](NCC5CCC5)C4)cc3=O)s2)c1 [Compound 077, (R)-4-(3-((cyclobutylmethyl)amino)piperidin-1-yl)-1-((5-(5-methoxypyridin-3-yl)-1,3,4-thiadiazol-2-yl)methyl)pyridin-2(1H)-one]	≤ 50 nM	500 to 5000 nM	500 to 5000 nM
COc1cncc(-c2cn(Cc3ccc(N4CCC[C@@H](NCC5CCC5)C4)nn3)cn2)c1 [Compound 081, (R)-N-(cyclobutylmethyl)-1-(6-((4-(5-methoxypyridin-3-yl)-1H-imidazol-1-yl)methyl)pyridazin-3-yl)piperidin-3-amine]	≤ 50 nM	500 to 5000 nM	≤ 500 nM
COc1cncc(-c2cn(C(C)(C)c3ccc(N4CCC[C@@H](NCC5CCC5)C4)nn3)nn2)c1 [Compound 082, (R)-N-(cyclobutylmethyl)-1-(6-(2-(4-(5-methoxypyridin-3-yl)-1H-1,2,3-triazol-1-yl)propan-2-yl)pyridazin-3-yl)piperidin-3-amine]	≤ 50 nM	500 to 5000 nM	500 to 5000 nM
COc1cncc(-c2cn(Cc3ccc(N4CCC[C@@H](NCC5CCC5)C4)nc3)nn2)c1 [Compound 086, (R)-N-(cyclobutylmethyl)-1-(5-((4-(5-methoxypyridin-3-yl)-1H-1,2,3-triazol-1-yl)methyl)pyridin-2-yl)piperidin-3-amine]	≤ 50 nM	500 to 5000 nM	500 to 5000 nM
COc1cncc(-c2cn(Cc3ccc(N4CCC[C@@H](NCC5CCC5)C4)cn3)nn2)c1 [Compound 087, (R)-N-(cyclobutylmethyl)-1-(6-((4-(5-methoxypyridin-3-yl)-1H-1,2,3-triazol-1-yl)methyl)pyridin-3-yl)piperidin-3-amine]	≤ 50 nM	500 to 5000 nM	500 to 5000 nM
COc1cncc(-c2cc(Cn3ccc(N4CCC[C@@H](NCC5CCC5)C4)cc3=O)n[nH]2)c1 [Compound 095, (R)-4-(3-((cyclobutylmethyl)amino)piperidin-1-yl)-1-((5-(5-methoxypyridin-3-yl)-1H-pyrazol-3-yl)methyl)pyridin-2(1H)-one]	≤ 50 nM	500 to 5000 nM	≤ 500 nM

Second part, led by results:

IC50 [1]	Structure (SMILES)	IC50 (Kasumi-1 cells)	IC50 (Caov-3 cells)
≤ 50 nM	COc1cc(-c2cn(Cc3ccc(N4CCC[C@@H](NCCC(C)(C)C)C4)nn3)nn2)c2cn[nH]c2c1 [Compound 024, (R)-N-(3,3-dimethylbutyl)-1-(6-((4-(6-methoxy-1H-indazol-4-yl)-1H-1,2,3-triazol-1-yl)methyl)pyridazin-3-yl)piperidin-3-amine]	> 5000 nM	> 5000 nM
≤ 50 nM	COc1cc(-c2cn(Cc3ccc(N4CCCC(NC5CC56CCC6)C4)nn3)nn2)c2cn[nH]c2c1 (stereo not drawn) [Compound 025, 1-(6-((4-(6-methoxy-1H-indazol-4-yl)-1H-1,2,3-triazol-1-yl)methyl)pyridazin-3-yl)-N-(spiro[2.3]hexan-1-yl)piperidin-3-amine]	500 to 5000 nM	≤ 500 nM
≤ 50 nM	COc1cc(-c2cn(Cc3cnc(N4CCCC(NCC5CCC5)C4)s3)nn2)c2cn[nH]c2c1 (stereo not drawn) [Compound 026, N-(cyclobutylmethyl)-1-(5-((4-(6-methoxy-1H-indazol-4-yl)-1H-1,2,3-triazol-1-yl)methyl)thiazol-2-yl)piperidin-3-amine]	500 to 5000 nM	> 5000 nM
≤ 50 nM	COc1cc(-c2cn(Cn3ccc(N4CCCC(NCC5CCC5)C4)cc3=O)nn2)c2cn[nH]c2c1 (stereo not drawn) [Compound 027, 4-(3-((cyclobutylmethyl)amino)piperidin-1-yl)-1-((4-(6-methoxy-1H-indazol-4-yl)-1H-1,2,3-triazol-1-yl)methyl)pyridin-2(1H)-one]	≤ 500 nM	≤ 500 nM
≤ 50 nM	COc1cc(-c2cn(Cn3ncc(N4CCCC(NCC5CCC5)C4)cc3=O)nn2)c2cn[nH]c2c1 (stereo not drawn) [Compound 028, 5-(3-((cyclobutylmethyl)amino)piperidin-1-yl)-2-((4-(6-methoxy-1H-indazol-4-yl)-1H-1,2,3-triazol-1-yl)methyl)pyridazin-3(2H)-one]	500 to 5000 nM	500 to 5000 nM
≤ 50 nM	COc1cc(-c2cn(Cc3ccc(N4CCC[C@@H](NC5CCC5)C4)nn3)nn2)c2cn[nH]c2c1 [Compound 030, (R)-N-cyclobutyl-1-(6-((4-(6-methoxy-1H-indazol-4-yl)-1H-1,2,3-triazol-1-yl)methyl)pyridazin-3-yl)piperidin-3-amine]	500 to 5000 nM	500 to 5000 nM
≤ 50 nM	COc1cc(-c2cn(Cc3ccc(N4CCC[C@@H](NCC(C)C)C4)nn3)nn2)c2cn[nH]c2c1 [Compound 031, (R)-N-isobutyl-1-(6-((4-(6-methoxy-1H-indazol-4-yl)-1H-1,2,3-triazol-1-yl)methyl)pyridazin-3-yl)piperidin-3-amine]	500 to 5000 nM	500 to 5000 nM
≤ 50 nM	COc1cc(-c2cn(Cc3ccc(N4CCC[C@@H](NCC(C)(C)C)C4)nn3)nn2)c2cn[nH]c2c1 [Compound 032, (R)-1-(6-((4-(6-methoxy-1H-indazol-4-yl)-1H-1,2,3-triazol-1-yl)methyl)pyridazin-3-yl)-N-neopentylpiperidin-3-amine]	500 to 5000 nM	≤ 500 nM
≤ 50 nM	COc1cc(-c2cn(Cc3nnc(N4CCCC(NCC5CCC5)C4)s3)nn2)c2cn[nH]c2c1 (stereo not drawn) [Compound 036, N-(cyclobutylmethyl)-1-(5-((4-(6-methoxy-1H-indazol-4-yl)-1H-1,2,3-triazol-1-yl)methyl)-1,3,4-thiadiazol-2-yl)piperidin-3-amine]	> 5000 nM	> 5000 nM
≤ 50 nM	COc1cc(-c2cn(Cc3ccc(N4CCC[C@@H](NCC5CCC5)C4)nc3)nn2)c2cn[nH]c2c1 [Compound 040, (R)-N-(cyclobutylmethyl)-1-(5-((4-(6-methoxy-1H-indazol-4-yl)-1H-1,2,3-triazol-1-yl)methyl)pyridin-2-yl)piperidin-3-amine]	≤ 500 nM	≤ 500 nM
≤ 50 nM	COc1cc(-c2cn(Cc3ccc(N4CCC[C@@H](NCC5CCC5)C4)cn3)nn2)c2cn[nH]c2c1 [Compound 042, (R)-N-(cyclobutylmethyl)-1-(6-((4-(6-methoxy-1H-indazol-4-yl)-1H-1,2,3-triazol-1-yl)methyl)pyridin-3-yl)piperidin-3-amine]	≤ 500 nM	≤ 500 nM
